From patent US20230135152A1 (ACURASTEM INCORPORATED, priority 2020, published 2023)

Key:
[1] = target: T1, PIKFYVE (Homo sapiens, UniProt Q9Y2I7); experiment: PIKFYVE assay (luciferase ADP-Glo kinase assay, Promega); type: biochemical
Description: The activity of Compounds 1-20 was measured using a PIKFYVE assay (luciferase ADP-Glo kinase assay available from Promega Corp. of Madison, Wis.).
The activity of Compounds 39-90 was also measured using a PIKFYVE assay (luciferase ADP-Glo kinase assay available from Promega Corp. of Madison, Wis.).
The activity of Compounds 93-347 was also measured using a PIKFYVE assay (luciferase ADP-Glo kinase assay available from Promega Corp. of Madison, Wis.).

[2] = target: T1, PIKFYVE; experiment: Cell-based Pikfyve inhibition activity assay (EEA1 staining, mean vesicle size in BJ fibroblast cells); settings: Table 4, 4 hours treatment, 3 μM Apilimod = 100% inhibition
Description: BJ fibroblast cells were obtained from American Type Cell Culture (ATCC, CRL-2522). The cells were maintained in DMEM (Genesee Scientific, 25-500) supplemented with 10% fetal bovine serum (Genesee Scientific, 25-514) and 1% penicillin-streptomycin (Genesee Scientific, 25-512) at 37° C. in the atmosphere 5% CO2. BJ fibroblasts were plated into black flat clear bottom 96-well plates (Grenier, 655090) at a density of 3×10^3 per well and were allowed to attach in culture for 8-10 hours before drug treatment. Drugs were tested at eleven doses separated by 3 fold from 0.03 nM to 3000 nM in triplicates for 4 hours at 37° C. After 4 hours, treatment media was aspirated and replaced with 4% Paraformaldehyde (Electron Microscopy Science, 15714-S) and cells were fixed at room temperature for 5 minutes. 4% PFA in wells were then discarded and replaced with a blocking buffer consisting of 1×PBS with 0.1% Tween (Sigma-Aldrich, P1754-500), 5% Donkey Serum (Jackson ImmunoResearch, 017-000-121), and 1% BSA (Caisson Labs, B005-50GM) and incubated at room temperature for 30 minutes. Blocking buffer was then discarded and replaced with a primary EEA1 antibody (Fisher Scientific, BD610457) in a 1:1000 dilution and incubated at 4° C. overnight. Following overnight incubation, plates were washed with 1×PBS three times and incubated with secondary antibody Donkey anti-Mouse IgG, Alexa Fluor 555 (Invitrogen, A31570) (1:1000 dilution) for 1 hour at room temperature in the dark. Subsequently cell plates were washed with 1×PBS three times and can be stored at 4° C. if not being proceeding with imaging procedure.
Images were acquired with 20× objective (ImageXpress MicroConfocal, Molecular Devices) creating z-series of 5 planes (5 steps, […]), 16 tiles per well. Images were then analyzed using a custom CellProfiler protocol to obtain mean vesicle size. The mean vesicle size from 16 images was used as the output for each well. The mean vesicle size from 0.5% DMSO treated condition was considered as having no Pikfyve inhibition activity and the 3 μM Apilimod treated condition was considered as having 100% inhibition activity. The mean vesicle size was converted to % inhibition activity and the data was fitted to a dose-response curve using log(inhibitor) vs normalized response-variable slope using GraphPad Prism.

T1 sequence (Q9Y2I7 whole entry): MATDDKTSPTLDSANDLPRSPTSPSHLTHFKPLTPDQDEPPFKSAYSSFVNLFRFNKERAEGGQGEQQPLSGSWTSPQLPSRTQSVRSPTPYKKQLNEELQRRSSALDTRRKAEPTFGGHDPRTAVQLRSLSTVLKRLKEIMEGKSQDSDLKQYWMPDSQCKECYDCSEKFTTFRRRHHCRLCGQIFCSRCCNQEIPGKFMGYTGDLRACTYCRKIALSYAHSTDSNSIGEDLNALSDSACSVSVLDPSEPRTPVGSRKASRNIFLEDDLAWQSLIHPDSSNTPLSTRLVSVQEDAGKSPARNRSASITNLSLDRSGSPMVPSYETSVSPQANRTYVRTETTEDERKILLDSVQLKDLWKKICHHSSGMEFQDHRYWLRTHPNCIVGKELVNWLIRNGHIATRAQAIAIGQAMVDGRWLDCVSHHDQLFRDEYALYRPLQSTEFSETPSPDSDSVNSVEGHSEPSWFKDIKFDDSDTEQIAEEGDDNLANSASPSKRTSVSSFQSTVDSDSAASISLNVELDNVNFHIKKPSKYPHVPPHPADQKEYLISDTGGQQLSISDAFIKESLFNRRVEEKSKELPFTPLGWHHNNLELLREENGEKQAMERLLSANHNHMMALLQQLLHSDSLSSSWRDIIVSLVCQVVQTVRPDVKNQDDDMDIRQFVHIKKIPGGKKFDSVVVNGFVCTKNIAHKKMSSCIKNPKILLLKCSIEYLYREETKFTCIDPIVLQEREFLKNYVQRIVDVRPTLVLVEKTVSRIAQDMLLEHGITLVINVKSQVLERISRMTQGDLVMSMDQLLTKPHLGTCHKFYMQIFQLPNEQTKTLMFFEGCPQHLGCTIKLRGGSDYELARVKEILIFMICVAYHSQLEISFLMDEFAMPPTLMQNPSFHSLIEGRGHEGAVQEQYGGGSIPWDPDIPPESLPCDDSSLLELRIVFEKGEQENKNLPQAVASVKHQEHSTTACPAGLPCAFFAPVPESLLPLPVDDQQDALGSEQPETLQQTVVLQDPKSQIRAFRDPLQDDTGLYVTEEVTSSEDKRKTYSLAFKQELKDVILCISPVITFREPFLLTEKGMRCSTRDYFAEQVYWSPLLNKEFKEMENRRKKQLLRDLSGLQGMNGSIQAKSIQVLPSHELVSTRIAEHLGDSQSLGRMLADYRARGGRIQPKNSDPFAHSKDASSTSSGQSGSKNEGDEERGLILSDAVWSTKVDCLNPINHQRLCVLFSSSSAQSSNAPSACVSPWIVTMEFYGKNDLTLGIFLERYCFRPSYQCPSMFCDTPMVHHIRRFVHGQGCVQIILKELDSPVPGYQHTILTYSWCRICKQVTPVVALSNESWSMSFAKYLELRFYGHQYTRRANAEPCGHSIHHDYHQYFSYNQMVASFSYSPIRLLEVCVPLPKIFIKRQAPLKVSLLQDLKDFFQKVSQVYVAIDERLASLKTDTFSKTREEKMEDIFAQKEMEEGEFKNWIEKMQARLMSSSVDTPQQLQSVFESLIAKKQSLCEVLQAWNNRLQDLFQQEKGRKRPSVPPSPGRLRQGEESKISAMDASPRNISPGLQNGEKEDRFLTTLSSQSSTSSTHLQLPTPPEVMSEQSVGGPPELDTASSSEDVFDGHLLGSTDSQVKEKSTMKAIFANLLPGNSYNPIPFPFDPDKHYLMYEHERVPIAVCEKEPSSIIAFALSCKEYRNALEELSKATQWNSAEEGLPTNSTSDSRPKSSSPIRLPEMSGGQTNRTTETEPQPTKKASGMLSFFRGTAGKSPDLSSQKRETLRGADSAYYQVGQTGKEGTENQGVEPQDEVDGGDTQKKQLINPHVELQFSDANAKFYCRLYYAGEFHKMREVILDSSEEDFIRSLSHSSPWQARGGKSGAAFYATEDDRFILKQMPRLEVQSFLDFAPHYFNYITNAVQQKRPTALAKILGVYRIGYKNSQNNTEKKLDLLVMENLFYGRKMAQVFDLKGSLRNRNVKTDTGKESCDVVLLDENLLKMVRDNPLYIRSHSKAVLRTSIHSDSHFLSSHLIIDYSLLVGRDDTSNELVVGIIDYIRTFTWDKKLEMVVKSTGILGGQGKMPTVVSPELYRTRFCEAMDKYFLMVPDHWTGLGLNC

| SMILES | IC50 ([1]; Table 3) [nM] | EC50 [2] [nM] | IC50 ([1]; Table 2) [nM] |
| --- | --- | --- | --- |
| COC(CO)c1nc(N2CCOCC2)cc(-n2ccc(-c3cccc(C)c3)n2)n1 (racemic) [Compound 156, 2-methoxy-2-(4-morpholino-6-(3-(m-tolyl)-1H-pyrazol-1-yl)pyrimidin-2-yl)ethan-1-ol] | 3 to 10 | 100 to 500 | – |
| Cc1cccc(-c2ccn(-c3cc(N4CCOCC4)nc(OC[C@@H](O)c4ccccc4)n3)n2)c1 (single isomer, unassigned) [Compound 57] | – | 20 to 100 | < 5 |
| Cc1cccc(-c2ccn(-c3cc(N4CCOCC4)nc(OC[C@H](O)c4ccccc4)n3)n2)c1 (single isomer, unassigned) [Compound 58] | – | 20 to 100 | < 5 |
| COC[C@@H](O)c1nc(N2CCOCC2)cc(-n2ccc(-c3cccc(C)c3)n2)n1 (single isomer, unassigned) [Compound 170] | 3 to 10 | 100 to 500 | – |
| CO[C@H](CO)c1nc(N2CCOCC2)cc(-n2nc(-c3ccccc3)cc2C)n1 (single isomer, unassigned) [Compound 205] | 10 to 100 | 500 to 5000 | – |
| CO[C@H](CO)c1nc(N2CCOCC2)cc(-n2nc(-c3cccc(C)c3)cc2C)n1 (single isomer, unassigned) [Compound 224] | 3 to 10 | 100 to 500 | – |
| CO[C@H](CO)c1nc(N2CCOCC2)cc(-n2ccc(-c3csc4ccccc34)n2)n1 (single isomer, unassigned) [Compound 258] | < 3 | 100 to 500 | – |
| CO[C@@H](CO)c1nc(N2CCOCC2)cc(-n2ccc(-c3csc4ccccc34)n2)n1 (single isomer, unassigned) [Compound 259] | 3 to 10 | 100 to 500 | – |
| COC(CO)c1nc(N2CCOCC2)cc(-n2nc(-c3c[nH]c4ccccc34)cc2C)n1 (single isomer, unassigned) [Compound 260, 2-(4-(3-(1H-indol-3-yl)-5-methyl-1H-pyrazol-1-yl)-6-morpholinopyrimidin-2-yl)-2-methoxyethan-1-ol] | < 3 | < 20 | – |
| CO[C@@H](CO)c1nc(N2CCOCC2)cc(-n2nc(-c3c[nH]c4ccccc34)cc2C)n1 (single isomer, unassigned) [Compound 261] | < 3 | < 20 | – |
| CO[C@H](CO)c1nc(N2CCO[C@@H](C)C2)cc(-n2ccc(-c3cccc(C)c3)n2)n1 (single isomer, unassigned) [Compound 305] | 10 to 100 | 500 to 5000 | – |
| CO[C@@H](CO)c1nc(N2CCO[C@@H](C)C2)cc(-n2ccc(-c3cccc(C)c3)n2)n1 (single isomer, unassigned) [Compound 306] | 100 to 5000 | > 5000 | – |
| CO[C@H](CO)c1nc(N2CCO[C@H](C)C2)cc(-n2ccc(-c3cccc(C)c3)n2)n1 (single isomer, unassigned) [Compound 307] | 10 to 100 | > 5000 | – |
| CO[C@@H](CO)c1nc(N2CCO[C@H](C)C2)cc(-n2ccc(-c3cccc(C)c3)n2)n1 (single isomer, unassigned) [Compound 308] | 10 to 100 | 500 to 5000 | – |
| Cc1cccc(-c2ccn(-c3cc(N4CCOCC4)nc([C@@H](CO)OC(F)F)n3)n2)c1 (single isomer, unassigned) [Compound 309] | 3 to 10 | 500 to 5000 | – |
| Cc1cccc(-c2ccn(-c3cc(N4CCOCC4)nc([C@H](CO)OC(F)F)n3)n2)c1 (single isomer, unassigned) [Compound 310] | 10 to 100 | 500 to 5000 | – |
| CCO[C@H](CO)c1nc(N2CCOCC2)cc(-n2ccc(-c3cccc(C)c3)n2)n1 (single isomer, unassigned) [Compound 311] | 3 to 10 | 100 to 500 | – |
| CCO[C@@H](CO)c1nc(N2CCOCC2)cc(-n2ccc(-c3cccc(C)c3)n2)n1 (single isomer, unassigned) [Compound 312] | 3 to 10 | 100 to 500 | – |
| Cc1cccc(-c2cc([C@H](C)O)n(-c3cc(N4CCOCC4)nc(OCCc4cnn(C)c4)n3)n2)c1 (single isomer, unassigned) [Compound 313] | < 3 | < 20 | – |
| Cc1cccc(-c2cc([C@@H](C)O)n(-c3cc(N4CCOCC4)nc(OCCc4cnn(C)c4)n3)n2)c1 (single isomer, unassigned) [Compound 314] | < 3 | < 20 | – |

| SMILES | IC50 ([1]; Table 3) [nM] | EC50 [2] [nM] | IC50 ([1]; Table 2) [nM] |
| --- | --- | --- | --- |
| C[C@@H](O)c1cccc(-c2ccn(-c3cc(N4CCOCC4)nc(OCCc4cnn(C)c4)n3)n2)c1 (single isomer, unassigned) [Compound 315] | < 3 | < 20 | – |
| C[C@H](O)c1cccc(-c2ccn(-c3cc(N4CCOCC4)nc(OCCc4cnn(C)c4)n3)n2)c1 (single isomer, unassigned) [Compound 316] | 3 to 10 | 20 to 100 | – |
| CO[C@H](CO)c1nc(N2CCOCC2)cc(-n2ccc(-c3c[nH]c4ccccc34)n2)n1 (single isomer, unassigned) [Compound 318] | < 3 | < 20 | – |
| CO[C@@H](CO)c1nc(N2CCOCC2)cc(-n2ccc(-c3c[nH]c4ccccc34)n2)n1 (single isomer, unassigned) [Compound 319] | < 3 | < 20 | – |
| CO[C@H](CO)c1nc(N2CCOCC2)cc(-n2ccc(-c3cn(C)c4ccccc34)n2)n1 (single isomer, unassigned) [Compound 320] | 3 to 10 | 20 to 100 | – |
| CO[C@@H](CO)c1nc(N2CCOCC2)cc(-n2ccc(-c3cn(C)c4ccccc34)n2)n1 (single isomer, unassigned) [Compound 321] | 3 to 10 | 500 to 5000 | – |
| CC[C@@H](OC)c1nc(N2CCOCC2)cc(-n2ccc(-c3cccc(C)c3)n2)n1 (single isomer, unassigned) [Compound 322] | 3 to 10 | 500 to 5000 | – |
| CC[C@H](OC)c1nc(N2CCOCC2)cc(-n2ccc(-c3cccc(C)c3)n2)n1 (single isomer, unassigned) [Compound 323] | 10 to 100 | 500 to 5000 | – |
| Cc1cccc(-c2ccn(-c3cc(N4CCOCC4)nc([C@@H]4COCCO4)n3)n2)c1 (single isomer, unassigned) [Compound 324] | 10 to 100 | 500 to 5000 | – |
| Cc1cccc(-c2ccn(-c3cc(N4CCOCC4)nc([C@H]4COCCO4)n3)n2)c1 (single isomer, unassigned) [Compound 325] | 10 to 100 | 500 to 5000 | – |
| Cc1cccc(-c2ccn(-c3cc(N4CCOCC4)nc([C@H]4CCCO4)n3)n2)c1 (single isomer, unassigned) [Compound 327] | 3 to 10 | 500 to 5000 | – |
| Cc1cccc(-c2ccn(-c3cc(N4CCOCC4)nc([C@@H]4CCCO4)n3)n2)c1 (single isomer, unassigned) [Compound 328] | 3 to 10 | > 5000 | – |
| Cc1cccc(-c2ccn(-c3cc(N4CCOCC4)nc([C@H]4CCOC4)n3)n2)c1 (single isomer, unassigned) [Compound 329] | 3 to 10 | > 5000 | – |
| Cc1cccc(-c2ccn(-c3cc(N4CCOCC4)nc([C@@H]4CCOC4)n3)n2)c1 (single isomer, unassigned) [Compound 330] | 3 to 10 | > 5000 | – |
| CO[C@@H](C)c1cccc(-c2ccn(-c3cc(N4CCOCC4)nc(OCCc4cnn(C)c4)n3)n2)c1 (single isomer, unassigned) [Compound 341] | < 3 | < 20 | – |
| Cc1cc(-c2c[nH]c3ccccc23)nn1-c1cc(N2CCOCC2)nc(C2COCCO2)n1 (single isomer, unassigned) [Compound 344] | < 3 | < 20 | – |
| Cc1cc(-c2c[nH]c3ccccc23)nn1-c1cc(N2CCOCC2)nc(C2COCCO2)n1 (single isomer, unassigned) [Compound 345] | < 3 | < 20 | – |
| Cc1cccc(-c2ccn(-c3cc(N4CCOCC4)nc(CCc4ncccn4)n3)n2)c1 [Compound 43] | – | 20 to 100 | < 5 |
| COc1cccc(-c2ccn(-c3cc(N4CCOCC4)nc(N)n3)n2)c1 [Compound 44, 4-(3-(3-methoxyphenyl)-1H-pyrazol-1-yl)-6-morpholino-pyrimidin-2-amine] | – | 100 to 500 | < 5 |
| Cc1cccc(-c2ccn(-c3cc(N4CCOCC4)nc(OCc4cccnn4)n3)n2)c1 [Compound 54, 4-(2-(pyridazin-3-ylmethoxy)-6-(3-(m-tolyl)-1H-pyrazol-1-yl)pyrimidin-4-yl)morpholine] | – | 20 to 100 | < 5 |
